Measurements taken from the supplement of paper PMC10307832.

What was measured:
Assay in all cases: relative viability (nuclei count vs DMSO), 5 days (fraction); higher = more cells survive
[1] = tested on: NCI-H1944
In short: (§1)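 Relative viability is defined as nuclei in treated wells over nuclei in vehicle wells. Duplicate plates were run and medians reported. Lung cancer cell lines in 1536-well plates were dosed by pin tool one day after seeding, with one drug or with a fixed anchor-drug dose plus five library-drug doses (not always all listed) in √10 steps, and nuclei were counted after 5 days.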

[2] = tested on: NCI-H3122
In short: as §1

[3] = tested on: NCI-H460
In short: as §1

[4] = tested on: NCI-H1915
In short: as §1

[5] = tested on: HCC-78
In short: as §1

[6] = tested on: COR-L23
In short: as §1

[7] = tested on: LK-2
In short: as §1

[8] = tested on: PC-14
In short: as §1

[9] = tested on: NCI-H727
In short: as §1

[10] = tested on: HCC-44
In short: as §1

[11] = tested on: NCI-H1975
In short: as §1

[12] = tested on: A-427
In short: as §1

[13] = tested on: HARA
In short: as §1

[14] = tested on: NCI-H2405
In short: as §1

[15] = tested on: NCI-H2023
In short: as §1

[16] = tested on: HCC-366
In short: as §1

[17] = tested on: EBC-1
In short: as §1

[18] = tested on: HCC-15
In short: as §1

[19] = tested on: COR-L 105
In short: as §1

[20] = tested on: NCI-H1563
In short: as §1

[21] = tested on: 201T
In short: as §1

[22] = tested on: LCLC-97TM1
In short: as §1

[23] = tested on: NCI-H1666
In short: as §1

[24] = tested on: NCI-H1437
In short: as §1

Q: For `Nc1cccc2c1CN(C1CCC(=O)NC1=O)C2=O` (stereo unspecified) [Lenalidomide] + C[C@@H](Oc1cc(-c2cnn(C3CCNCC3)c2)cnc1N)c1c(Cl)ccc(F)c1Cl [Crizotinib] (partner 1 µM), which relative viability ([1]; first compound 0.253 µM) is on record?
A: 1.1

Q: And the relative viability ([1]; first compound 0.8 µM)?
A: 1.1

Q: What about the relative viability ([1]; first compound 2.53 µM) of the same molecule?
A: 1.15

Q: What about the relative viability ([1]; first compound 8 µM) of the same molecule?
A: 1

Q: What about the relative viability ([2]; first compound 0.253 µM) of the same molecule?
A: 0.261

Q: And the relative viability ([2]; first compound 0.8 µM)?
A: 0.286

Q: And the relative viability ([2]; first compound 2.53 µM)?
A: 0.261

Q: And the relative viability ([2]; first compound 8 µM)?
A: 0.258

Q: What about the relative viability ([3]; first compound 0.253 µM) of the same molecule?
A: 0.807

Q: What about the relative viability ([3]; first compound 0.8 µM) of the same molecule?
A: 1.06

Q: What about the relative viability ([3]; first compound 2.53 µM) of the same molecule?
A: 1.01

Q: What about the relative viability ([3]; first compound 8 µM) of the same molecule?
A: 0.929

Q: What about the relative viability ([4]; first compound 0.253 µM) of the same molecule?
A: 0.906

Q: And the relative viability ([4]; first compound 0.8 µM)?
A: 0.88

Q: What about the relative viability ([4]; first compound 2.53 µM) of the same molecule?
A: 0.978

Q: And the relative viability ([4]; first compound 8 µM)?
A: 0.952

Q: What about the relative viability ([5]; first compound 0.253 µM) of the same molecule?
A: 0.304

Q: And the relative viability ([5]; first compound 0.8 µM)?
A: 0.31

Q: What about the relative viability ([5]; first compound 2.53 µM) of the same molecule?
A: 0.351

Q: And the relative viability ([5]; first compound 8 µM)?
A: 0.3

Q: And the relative viability ([6]; first compound 0.253 µM)?
A: 0.656

Q: What about the relative viability ([6]; first compound 0.8 µM) of the same molecule?
A: 0.634

Q: And the relative viability ([6]; first compound 2.53 µM)?
A: 0.718

Q: What about the relative viability ([6]; first compound 8 µM) of the same molecule?
A: 0.82

Q: What about the relative viability ([7]; first compound 0.253 µM) of the same molecule?
A: 0.229

Q: And the relative viability ([7]; first compound 2.53 µM)?
A: 0.216

Q: What about the relative viability ([7]; first compound 8 µM) of the same molecule?
A: 0.256

Q: What about the relative viability ([8]; first compound 0.253 µM) of the same molecule?
A: 0.904

Q: And the relative viability ([8]; first compound 0.8 µM)?
A: 0.857

Q: What about the relative viability ([8]; first compound 2.53 µM) of the same molecule?
A: 0.905

Q: And the relative viability ([8]; first compound 8 µM)?
A: 0.914

Q: What about the relative viability ([9]; first compound 0.253 µM) of the same molecule?
A: 0.83

Q: And the relative viability ([9]; first compound 2.53 µM)?
A: 0.894

Q: And the relative viability ([9]; first compound 8 µM)?
A: 0.952

Q: What about the relative viability ([10]; first compound 0.253 µM) of the same molecule?
A: 0.823

Q: And the relative viability ([10]; first compound 0.8 µM)?
A: 0.663

Q: And the relative viability ([10]; first compound 2.53 µM)?
A: 0.857

Q: What about the relative viability ([10]; first compound 8 µM) of the same molecule?
A: 0.832

Q: And the relative viability ([11]; first compound 0.253 µM)?
A: 1.03

Q: And the relative viability ([11]; first compound 0.8 µM)?
A: 0.984

Q: What about the relative viability ([11]; first compound 2.53 µM) of the same molecule?
A: 1.15

Q: And the relative viability ([11]; first compound 8 µM)?
A: 1.01

Q: What about the relative viability ([12]; first compound 0.253 µM) of the same molecule?
A: 0.833

Q: And the relative viability ([12]; first compound 2.53 µM)?
A: 0.891

Q: And the relative viability ([12]; first compound 8 µM)?
A: 0.903

Q: What about the relative viability ([13]; first compound 0.253 µM) of the same molecule?
A: 1.02

Q: And the relative viability ([13]; first compound 0.8 µM)?
A: 1.05

Q: And the relative viability ([13]; first compound 2.53 µM)?
A: 1.2

Q: What about the relative viability ([13]; first compound 8 µM) of the same molecule?
A: 1.13

Q: And the relative viability ([14]; first compound 0.253 µM)?
A: 0.819

Q: And the relative viability ([14]; first compound 0.8 µM)?
A: 0.858

Q: And the relative viability ([14]; first compound 2.53 µM)?
A: 0.897

Q: And the relative viability ([14]; first compound 8 µM)?
A: 0.791

Q: And the relative viability ([15]; first compound 0.253 µM)?
A: 0.661

Q: And the relative viability ([15]; first compound 0.8 µM)?
A: 0.785

Q: And the relative viability ([15]; first compound 2.53 µM)?
A: 0.675

Q: What about the relative viability ([15]; first compound 8 µM) of the same molecule?
A: 0.596

Q: What about the relative viability ([16]; first compound 0.253 µM) of the same molecule?
A: 0.56

Q: What about the relative viability ([16]; first compound 0.8 µM) of the same molecule?
A: 0.499

Q: What about the relative viability ([16]; first compound 2.53 µM) of the same molecule?
A: 0.465

Q: And the relative viability ([16]; first compound 8 µM)?
A: 0.499

Q: What about the relative viability ([17]; first compound 0.253 µM) of the same molecule?
A: 0.195

Q: What about the relative viability ([17]; first compound 0.8 µM) of the same molecule?
A: 0.191

Q: What about the relative viability ([17]; first compound 2.53 µM) of the same molecule?
A: 0.154

Q: And the relative viability ([17]; first compound 8 µM)?
A: 0.194

Q: What about the relative viability ([18]; first compound 0.253 µM) of the same molecule?
A: 0.809

Q: What about the relative viability ([18]; first compound 2.53 µM) of the same molecule?
A: 1.03

Q: And the relative viability ([18]; first compound 8 µM)?
A: 0.799

Q: What about the relative viability ([19]; first compound 0.253 µM) of the same molecule?
A: 0.905

Q: And the relative viability ([19]; first compound 0.8 µM)?
A: 0.716

Q: And the relative viability ([19]; first compound 2.53 µM)?
A: 0.986

Q: What about the relative viability ([19]; first compound 8 µM) of the same molecule?
A: 1.12

Q: What about the relative viability ([20]; first compound 0.253 µM) of the same molecule?
A: 0.882

Q: What about the relative viability ([20]; first compound 0.8 µM) of the same molecule?
A: 0.782

Q: What about the relative viability ([20]; first compound 2.53 µM) of the same molecule?
A: 0.811

Q: What about the relative viability ([20]; first compound 8 µM) of the same molecule?
A: 0.88

Q: What about the relative viability ([21]; first compound 0.253 µM) of the same molecule?
A: 1.05

Q: What about the relative viability ([21]; first compound 0.8 µM) of the same molecule?
A: 1.02

Q: What about the relative viability ([21]; first compound 2.53 µM) of the same molecule?
A: 1.04

Q: What about the relative viability ([21]; first compound 8 µM) of the same molecule?
A: 1.05

Q: What about the relative viability ([22]; first compound 0.8 µM) of the same molecule?
A: 0.511

Q: What about the relative viability ([22]; first compound 2.53 µM) of the same molecule?
A: 0.463

Q: And the relative viability ([22]; first compound 8 µM)?
A: 0.305

Q: What about the relative viability ([23]; first compound 0.253 µM) of the same molecule?
A: 0.973

Q: And the relative viability ([23]; first compound 0.8 µM)?
A: 0.807

Q: What about the relative viability ([23]; first compound 2.53 µM) of the same molecule?
A: 1.19

Q: And the relative viability ([23]; first compound 8 µM)?
A: 1.11

Q: And the relative viability ([24]; first compound 0.253 µM)?
A: 1.01

Q: What about the relative viability ([24]; first compound 0.8 µM) of the same molecule?
A: 0.917

Q: And the relative viability ([24]; first compound 2.53 µM)?
A: 1.02

Q: What about the relative viability ([24]; first compound 8 µM) of the same molecule?
A: 0.938
